Results as given in patent US20110124745A1, “Switchable Anionic Surfactants and Methods of Making and Using Same” (priority 2009, published 2011).

Experiments:
Assay type in all cases: physicochemical
[1] = Switching efficiency by 1H NMR, method B (DMF internal standard); conditions: relative to DMF standard set to 100
Text: In both methods, to quantify the concentration of surfactant in solution, its ^1H NMR integration was compared to one of two internal standards of known concentration. In addition to the difference in which internal standard was used, the two methods can also be distinguished from each other on the basis of the timing of the addition of the internal standard. In method A, the standard remains in the solution during the process of switching. In method B, the switching is executed first and the DMF solution of known strength and quantity is added in to the solution.
In both methods, the surfactant was turned OFF with CO2 by positioning the needle that supplied the CO2 to the surfactant solution above the solution in such a way that the slow flow of CO2 was allowed to interact with the surfactant solution at the surface. The switching from ON to OFF required 5 min or less. Increasing the surface area, for example, by slightly tilting the vial, expedited the switching from ON to OFF. To turn the surfactant ON, the solution was stirred at 70° C. for 40 min as described above. After each ON cycle, 0.5 mL of D2O was added to the solution to compensate for the loss in the volume caused by evaporation.
The surfactant solution was prepared by combining 0.046 g of octyl 4-hydroxy-3-nitrobenzoate and 0.136 g of Na2CO3 in 16.0 mL of D2O. The resultant solution was homogenized by sonication for 2 min. 1.00 mL of this solution was transferred using a Hamilton syringe into thirteen different vials (1, 2, 2*, 3, 4, 5, 6, 7, 8, 9, 10, 11 and 12). Stirring bars were introduced in vials 2* through 12. […] The surfactant in vial 2 was turned OFF by the procedure described above. The solution in vial 2* was turned OFF with CO2 and was then left stirring uncapped at room temperature for 18 h. All the vials (excluding 2*) were tightly capped and left at room temperature for 18 h to confirm the stability of the systems in both the ON/OFF forms upon standing.
The standard solution of DMF was prepared by mixing 0.005 mL of DMF in 8.0 mL of D2O. […] The ^1H NMR spectra of all solutions were recorded. […]

[2] = Surface tension studies (tensiometer measurements)
Method: A stock solution of compound (1A) was prepared by combining 0.460 g (1.559 mmol) of octyl 4-hydroxy-3-nitrobenzoate (1N) and 1.36 g (12.83 mmol) of Na2CO3 in 160 mL of deionized H2O. The resultant solution was homogenized by sonication for 2 min using a sonicating machine (model […], available from Fisher Scientific, Ottawa, Canada). 10 mL of the homogeneous solution was transferred into each of thirteen vials (13×10 mL, vial numbers: 1, 2, 2*, 3, 4, 5, 6, 7, 8, 9, 10, 11 and 12). The levels of solution in all the vials were marked using a marker pen on the outside of the vials. A stir bar was introduced in vials 2* through 12.
The solutions in each vial were turned OFF and back ON according to Table 1. […] In vials 2 and 2*, the surfactant was turned OFF. In vial 2*, following the OFF-turning, the uncapped vial contents were stirred at room temperature for 48 h.
Vials (other than vial 2*) were left at room temperature for 18 h prior to surface tension measurements. Where necessary, water was added to the vials until the total volume matched the original marked levels.
The contents of vials with even numbers (OFF) were filtered by passing them through a Kimwipe™ plug in a pipette to obtain a clear solution.
Surface tension for all solutions was measured in triplicate. The three values of surface tension for each solution remained within ±1 dynes/cm indicating good reproducibility. The tensiometer (Surface Tensiomat 21, Model 14814, available from Fischer Scientific, Ottawa, Canada) was calibrated using deionized water. The initial value of 72 dynes/cm obtained for water was acceptable within experimental error.

[3] = Solubility observations (aqueous solution, DMSO)
Text: The following study confirmed that compounds (1A) and (1N) reversibly convert from the neutral form (1N) to the anionic form (1A) and back to the neutral form over and over again with substantially no loss of product. The conversion was verified visually since the neutral form was not soluble in aqueous solution and appeared as a white precipitate in colourless liquid while the anionic form was fully soluble in aqueous solution and appeared as a clear yellow liquid (see FIG. 2). In addition to visual examination, ^1H NMR studies that are described below confirmed the presence of the hydroxyl proton in the spectra of the neutral form.
Since n-octyl 4-hydroxy-3-nitrobenzoate (1N) and the […] salt of (1A) are soluble in DMSO and have some characteristic signals in the ^1H NMR spectrum, […] was used as a solvent to monitor the non-aqueous switchability by NMR spectroscopy.

| Proton integration at ~7.3 δ ([1]; D2O with Na2CO3, vial 1, control, never switched (ON)) | Proton integration at ~7.3 δ ([1]; vial 2*: turned OFF with CO2, then stirred uncapped at room temperature) | Average surface tension ([2]; 1.559 mmol (1N) + 12.83 mmol Na2CO3 in 160 mL water, vial 1, control, never switched (ON)) | average value of the surface tension over the ON vials ([2]; ON form, vials 1, 3, 5, 7, 9, 11) | Average surface tension ([2]; vial 2*: turned OFF, then stirred uncapped at room temperature for 48 h) | solubility in aqueous solution (visual) [3] | Proton integration at ~7.3 δ ([1]; filtered solution, vials 2, 4, 6, 8, 10, 12: cycles of Table 1 ending OFF (CO2)) | average value of the surface tension over the OFF vials ([2]; OFF form, vials 2, 4, 6, 8, 10, 12) | solubility in DMSO [3] | Structure (SMILES) |
| --- | --- | --- | --- | --- | --- | --- | --- | --- | --- |
| 46 | 45 | 35 dynes/cm | 34 dynes/cm | 35 dynes/cm | fully soluble |  |  |  | CCCCCCCCOC(=O)c1ccc(O)c([N+](=O)[O-])c1 [compound (1A), 2-nitro-4-(octyloxycarbonyl)phenolate] |
|  |  |  |  |  |  | 0 | 61 dynes/cm | soluble | CCCCCCCCOC(=O)c1ccc(O)c([N+](=O)[O-])c1 [compound (1N), octyl 4-hydroxy-3-nitrobenzoate] |
